In the experiment the test system is T1, Na+-stimulated ATPase (likely F1F0-ATPase).
T1 construct: gene atpD
The experiment is described as follows: inorganic phosphate release, Lineweaver-Burk plot. The settings on record: 20 mM Tris-HCl pH 7.6, 5 mM MgCl2, 10 mM NaCl; detergent-solubilised enzyme; read-out: apparent Km. Type of experiment: biochemical, Aphanothece halophytica.

As a reminder, the Km is the concentration of substrate that gives half-maximal velocity. Regarding `Nc1ncnc2c1ncn2[C@@H]1O[C@H](COP(=O)(O)OP(=O)(O)OP(=O)(O)O)[C@@H](O)[C@H]1O` [ATP], the Km was determined as 1200 µM.

The values are drawn from publication PMC2928168, “Na^+-stimulated ATPase of alkaliphilic halotolerant cyanobacterium Aphanothece halophytica translocates Na^+ into proteoliposomes via Na^+ uniport mechanism” (BMC Biochemistry, 2010).
